The source of these data is PubChem BioAssay AID220 (DTP/NCI, 2004).

The assay concerns CD8F1 mice, subcutaneous mammary adenocarcinoma, T/C%. The assay is described as follows: NCI In Vivo Anticancer Drug Screen. Data for tumor model Mammary Adenocarcinoma CD8F1 (subcutaneous) in CD8F1. The conditions noted are these: higher = larger tumour. In short, it runs like this:
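Tumor-bearing mice, transplantable model; readout survival or tumor size; value = treated (T) / vehicle control (C).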

Where [1] appears, read: endpoint: median tumor weight (est.), dose: 12.5 mg/kg/injection, schedule: Q07DX005 (ip), vehicle: saline with Tween-80.
Where [2] appears, read: endpoint: median tumor weight (est.), dose: 25.0 mg/kg/injection, schedule: Q07DX005 (ip), vehicle: saline with Tween-80.
Setting [3] is: endpoint: median tumor weight (est.), dose: 50.0 mg/kg/injection, schedule: Q07DX005 (ip), vehicle: saline with Tween-80.
[4] abbreviates: endpoint: median tumor weight change, dose: 125.0 mg/kg/injection, schedule: Q01DX001 (ip), vehicle: water.
Setting [5] is: endpoint: median tumor weight change, dose: 62.5 mg/kg/injection, schedule: Q01DX001 (ip), vehicle: saline with Tween-80.
The mark [6] stands for this setting: endpoint: median tumor weight change, dose: 125.0 mg/kg/injection, schedule: Q01DX001 (ip), vehicle: saline with Tween-80.
Setting [7] is: endpoint: median tumor weight change, dose: 250.0 mg/kg/injection, schedule: Q01DX001 (ip), vehicle: saline with Tween-80.

SMILES strings stand for the structures. Values joined by “and” are separate entries in the source; they are usually repeats but may differ in a detail not shown here. Identical values can stand only once. Inconclusive results are not listed.

With `CC(=O)c1c(O)c(C)c(O)c2c1OC1=CC(=O)C(C(C)=O)C(=O)C12C` (configuration not stated), the T/C was 44 % of control (endpoint: median tumor weight (est.), dose: 12.5 mg/kg/injection, schedule: Q07DX004 (ip), vehicle: gum acacia); 95 % of control (endpoint: median tumor weight (est.), dose: 12.5 mg/kg/injection, schedule: Q07DX005 (ip), vehicle: gum acacia); 78 % of control (endpoint: median tumor weight (est.), dose: 25.0 mg/kg/injection, schedule: Q07DX004 (ip), vehicle: gum acacia); 120 % of control (endpoint: median tumor weight (est.), dose: 25.0 mg/kg/injection, schedule: Q07DX005 (ip), vehicle: gum acacia); 79 % of control and 97 % of control (endpoint: median tumor weight (est.), dose: 50.0 mg/kg/injection, schedule: Q04DX005 (ip), vehicle: gum acacia); 85 % of control (endpoint: median tumor weight (est.), dose: 50.0 mg/kg/injection, schedule: Q07DX004 (ip), vehicle: gum acacia). Moreover, the T/C was 85 % of control (endpoint: median tumor weight (est.), dose: 50.0 mg/kg/injection, schedule: Q07DX005 (ip), vehicle: gum acacia); 114 % of control (endpoint: median tumor weight (est.), dose: 100.0 mg/kg/injection, schedule: Q07DX004 (ip), vehicle: gum acacia); 74 % of control (endpoint: median tumor weight (est.), dose: 100.0 mg/kg/injection, schedule: Q07DX005 (ip), vehicle: gum acacia); 102 % of control (endpoint: median tumor weight (est.), dose: 200.0 mg/kg/injection, schedule: Q07DX005 (ip), vehicle: gum acacia); 97 % of control (endpoint: median tumor weight (est.), dose: 400.0 mg/kg/injection, schedule: Q04DX005 (ip), vehicle: gum acacia); 42 % of control (endpoint: median tumor weight (est.), dose: 400.0 mg/kg/injection, schedule: Q07DX004 (ip), vehicle: gum acacia). Also, the T/C (endpoint: median tumor weight (est.), dose: 400.0 mg/kg/injection, schedule: Q07DX005 (ip), vehicle: gum acacia) is 96 % of control.
In the case of `Cc1cnc(/C=N\NC(N)=S)c2cccc(N)c12`, the T/C runs as follows: (endpoint: median tumor weight (est.), dose: 3.12 mg/kg/injection, schedule: Q07DX005 (ip), vehicle: saline with Tween-80) 93 % of control; under setting [1], 83 % of control and 94 % of control; under setting [2], 54 % of control and 71 % of control; under setting [3], 46 % of control and 62 % of control; (endpoint: median tumor weight (est.), dose: 100.0 mg/kg/injection, schedule: Q07DX005 (ip), vehicle: saline with Tween-80) 55 % of control and 66 % of control.
Regarding `NC(=O)c1csc(C2OC(CO)C(O)C2O)n1` (configuration not stated), the T/C is, setting by setting: under setting [4], 87 % of control and 96 % of control; (endpoint: median tumor weight change, dose: 500.0 mg/kg/injection, schedule: Q01DX001 (ip), vehicle: water) 11 % of control and 35 % of control; (endpoint: median tumor weight change, dose: 2000.0 mg/kg/injection, schedule: Q01DX001 (ip), vehicle: water) 55 % of control.
For `COc1cc2c(c(OC)c1O)-c1ccc(OC)c(=O)cc1[C@@H](NC(=O)C(F)(F)F)CC2`, the T/C is 100 % of control (endpoint: median tumor weight change, dose: 3.12 mg/kg/injection, schedule: Q01DX001 (ip), vehicle: Klucel (hydroxypropylcellulose) (HPC)); 203 % of control (endpoint: median tumor weight change, dose: 6.25 mg/kg/injection, schedule: Q01DX001 (ip), vehicle: Klucel (hydroxypropylcellulose) (HPC)); 74 % of control (endpoint: median tumor weight change, dose: 12.5 mg/kg/injection, schedule: Q01DX001 (ip), vehicle: Klucel (hydroxypropylcellulose) (HPC)); 168 % of control (endpoint: median tumor weight change, dose: 25.0 mg/kg/injection, schedule: Q01DX001 (ip), vehicle: Klucel (hydroxypropylcellulose) (HPC)); 21 % of control (endpoint: median tumor weight change, dose: 50.0 mg/kg/injection, schedule: Q01DX001 (ip), vehicle: Klucel (hydroxypropylcellulose) (HPC)).
With `C=CC12COC(=O)C(=C)C1C1OC(=O)C(=C)C1C(O)C2` (configuration not stated), under “endpoint: mean tumor weight, dose: 5.0 mg/kg/injection, schedule: Q07DX006 (ip), vehicle: saline”, the T/C is 78 % of control.
In the case of `CC1=CC2c3cccc4[nH]cc(c34)CC2N(C)C1` (configuration not stated), the T/C (endpoint: median tumor weight change, dose: 25.0 mg/kg/injection, schedule: Q01DX001 (ip), vehicle: suspension in saline) is 115 % of control.
`Oc1ccc(CCl)c2cccnc12`: the T/C runs as follows: (endpoint: median tumor weight change, dose: 62.5 mg/kg/injection, schedule: Q01DX001 (ip), vehicle: saline) 54 % of control; (endpoint: median tumor weight change, dose: 125.0 mg/kg/injection, schedule: Q01DX001 (ip), vehicle: saline) 78 % of control.
In the case of `CCCCOCN(COCCCC)C(C)Cc1ccccc1` (configuration not stated), the T/C was 100 % of control under setting [5]; 85 % of control under setting [6]; 110 % of control under setting [7]; 80 % of control (endpoint: median tumor weight change, dose: 1000.0 mg/kg/injection, schedule: Q01DX001 (ip), vehicle: saline with Tween-80).
Turning to `Nc1ncnc2c1ncn2C1C=C(CO)C(O)C1O` (configuration not stated), the T/C was 63 % of control (endpoint: median tumor weight change, dose: 2.5 mg/kg/injection, schedule: Q01DX001 (ip), vehicle: saline); 113 % of control (endpoint: median tumor weight change, dose: 2.5 mg/kg/injection, schedule: Q01DX001 (ip), vehicle: suspension in saline); 107 % of control (endpoint: median tumor weight change, dose: 5.0 mg/kg/injection, schedule: Q01DX001 (ip), vehicle: saline); 115 % of control (endpoint: median tumor weight change, dose: 5.0 mg/kg/injection, schedule: Q01DX001 (ip), vehicle: suspension in saline); 100 % of control (endpoint: median tumor weight change, dose: 10.0 mg/kg/injection, schedule: Q01DX001 (ip), vehicle: saline); 86 % of control (endpoint: median tumor weight change, dose: 20.0 mg/kg/injection, schedule: Q01DX001 (ip), vehicle: saline). The T/C is 39 % of control (endpoint: median tumor weight change, dose: 20.0 mg/kg/injection, schedule: Q01DX001 (ip), vehicle: suspension in saline) and 40 % of control (endpoint: median tumor weight change, dose: 40.0 mg/kg/injection, schedule: Q01DX001 (ip), vehicle: saline).
For `O=C(NO)c1ccccc1`, the T/C was 46 % of control (endpoint: median tumor weight (est.), dose: 25.0 mg/kg/injection, schedule: Q07DX005 (ip), vehicle: suspension in saline); 109 % of control (endpoint: median tumor weight (est.), dose: 50.0 mg/kg/injection, schedule: Q07DX005 (ip), vehicle: suspension in saline); 293 % of control (endpoint: median tumor weight (est.), dose: 100.0 mg/kg/injection, schedule: Q07DX005 (ip), vehicle: suspension in saline).
Regarding `BrCC[Se]c1ccccc1`, the T/C was 78 % of control (endpoint: median tumor weight (est.), dose: 6.25 mg/kg/injection, schedule: Q07DX005 (ip), vehicle: saline with Tween-80); 104 % of control under setting [1]; 80 % of control under setting [2]; 152 % of control under setting [3].
As for `O=C1[C@H]2CCC[C@H]2[C@H]2CCC[C@@H]12`, the T/C reads like this: under setting [5], 51 % of control; under setting [6], 44 % of control; under setting [7], 60 % of control; (endpoint: median tumor weight change, dose: 500.0 mg/kg/injection, schedule: Q01DX001 (ip), vehicle: saline with Tween-80) 35 % of control.
With `CCN(CC)CCN1C(=O)C2C3C=CC(C2C1=O)C1C2C(=O)N(CCN(CC)CC)C(=O)C2C31` (configuration not stated), the T/C runs as follows: (endpoint: median tumor weight change, dose: 15.62 mg/kg/injection, schedule: Q01DX001 (ip), vehicle: water) 106 % of control; (endpoint: median tumor weight change, dose: 31.25 mg/kg/injection, schedule: Q01DX001 (ip), vehicle: water) 111 % of control; (endpoint: median tumor weight change, dose: 62.5 mg/kg/injection, schedule: Q01DX001 (ip), vehicle: water) 88 % of control; under setting [4], 92 % of control.
Consider `COc1cc(C)c(C2NC(=O)c3ccccc3N2)cc1C` (configuration not stated), for which the T/C by setting is: (endpoint: median tumor weight change, dose: 125.0 mg/kg/injection, schedule: Q01DX001 (ip), vehicle: Klucel (hydroxypropylcellulose) (HPC)) 69 % of control; (endpoint: median tumor weight change, dose: 250.0 mg/kg/injection, schedule: Q01DX001 (ip), vehicle: Klucel (hydroxypropylcellulose) (HPC)) 76 % of control; (endpoint: median tumor weight change, dose: 500.0 mg/kg/injection, schedule: Q01DX001 (ip), vehicle: Klucel (hydroxypropylcellulose) (HPC)) 91 % of control; (endpoint: median tumor weight change, dose: 1000.0 mg/kg/injection, schedule: Q01DX001 (ip), vehicle: Klucel (hydroxypropylcellulose) (HPC)) 107 % of control; (endpoint: median tumor weight change, dose: 2000.0 mg/kg/injection, schedule: Q01DX001 (ip), vehicle: Klucel (hydroxypropylcellulose) (HPC)) 84 % of control.
As for `COC(=O)Nc1cccc(-c2nc3ccc(NC(=O)OC)cc3c(=O)n2-c2ccccc2)c1`, the T/C is 180 % of control (endpoint: mean tumor weight, dose: 50.0 mg/kg/injection, schedule: Q07DX006 (ip), vehicle: saline); 167 % of control (endpoint: mean tumor weight, dose: 100.0 mg/kg/injection, schedule: Q07DX006 (ip), vehicle: saline); 101 % of control (endpoint: median tumor weight (est.), dose: 12.5 mg/kg/injection, schedule: Q04DX005 (ip), vehicle: saline); 79 % of control (endpoint: median tumor weight (est.), dose: 12.5 mg/kg/injection, schedule: Q07DX004 (ip), vehicle: saline); 103 % of control (endpoint: median tumor weight (est.), dose: 25.0 mg/kg/injection, schedule: Q07DX004 (ip), vehicle: saline); 109 % of control (endpoint: median tumor weight (est.), dose: 50.0 mg/kg/injection, schedule: Q04DX005 (ip), vehicle: saline). Moreover, the T/C reads like this: (endpoint: median tumor weight (est.), dose: 50.0 mg/kg/injection, schedule: Q07DX004 (ip), vehicle: saline) 88 % of control; (endpoint: median tumor weight (est.), dose: 200.0 mg/kg/injection, schedule: Q04DX005 (ip), vehicle: saline) 88 % of control; (endpoint: median tumor weight (est.), dose: 200.0 mg/kg/injection, schedule: Q07DX004 (ip), vehicle: saline) 113 % of control; (endpoint: median tumor weight (est.), dose: 400.0 mg/kg/injection, schedule: Q07DX004 (ip), vehicle: saline) 101 % of control.
